# Target: T1, ZAK (Homo sapiens, UniProt Q9NYL2)
# T1 construct: purchased Thermo Fisher Scientific (Life Technologies) SelectScreen
# Test: SelectScreen LanthaScreen
# Type: binding
# Conditions: read-out: % displacement
# Summary of the method: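 NU5455 was profiled across the SelectScreen Broad panel of kinase activity and binding assays. Z'LYTE reactions such as CSF1R ran at apparent Km ATP, while the Adapta CAMK1 assay used ATP listed as 10. Values are given as percent.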
# T1 sequence (Q9NYL2 whole entry): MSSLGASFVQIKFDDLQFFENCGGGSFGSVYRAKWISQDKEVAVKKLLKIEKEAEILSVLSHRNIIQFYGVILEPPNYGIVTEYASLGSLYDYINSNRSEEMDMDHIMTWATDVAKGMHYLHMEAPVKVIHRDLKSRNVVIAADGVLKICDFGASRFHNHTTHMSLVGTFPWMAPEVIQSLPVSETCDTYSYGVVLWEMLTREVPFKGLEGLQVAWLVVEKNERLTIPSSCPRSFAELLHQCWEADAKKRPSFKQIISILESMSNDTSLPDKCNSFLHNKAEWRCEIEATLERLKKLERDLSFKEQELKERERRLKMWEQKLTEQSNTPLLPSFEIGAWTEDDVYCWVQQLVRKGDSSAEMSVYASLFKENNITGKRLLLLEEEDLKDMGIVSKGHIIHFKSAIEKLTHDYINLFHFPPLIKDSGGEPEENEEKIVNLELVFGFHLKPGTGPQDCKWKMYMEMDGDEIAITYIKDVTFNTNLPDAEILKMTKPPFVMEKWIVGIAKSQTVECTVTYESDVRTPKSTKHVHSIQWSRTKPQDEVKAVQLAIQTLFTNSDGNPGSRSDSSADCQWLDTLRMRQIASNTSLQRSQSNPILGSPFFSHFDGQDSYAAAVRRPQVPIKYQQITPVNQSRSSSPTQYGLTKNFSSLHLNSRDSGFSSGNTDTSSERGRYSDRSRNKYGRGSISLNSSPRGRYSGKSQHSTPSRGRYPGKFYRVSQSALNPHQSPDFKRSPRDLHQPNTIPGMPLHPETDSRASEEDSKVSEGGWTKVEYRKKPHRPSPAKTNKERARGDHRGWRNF
smiles,measurement,value
CN(C(=O)CN1CCOCC1)c1ccc2sc3c(-c4cccc5c(=O)cc(N6CC7CCC(C6)O7)oc45)cccc3c2c1 [NU5455],inhibition at 1 µM,-0.7%

# — article PMC6934184, “Selective DNA-PKcs inhibition extends the therapeutic index of localized radiotherapy and chemotherapy” (The Journal of Clinical Investigation, 2019)
